Measured values: US9107410B2, “Pesticidal compositions and processes related thereto” (Dow AgroSciences LLC, priority 2011, dated 2015)
Read-outs that look alike come from different tables or passages of the source.

How the values were obtained:
Format in all cases: in vivo
[1] = system: Green Peach Aphid (GPA) (Myzus persicae); test: Bioassay on green peach aphid (GPA), foliar spray on cabbage seedlings; details: 72 h, read-out: % Mortality GPA 200 ppm
Procedure: Certain molecules disclosed in this document were tested against GPA using procedures described in the following example. In the reporting of the results, the “GPA Rating Table” was used (See Table Section).
Cabbage seedlings grown in 3-inch pots, with 2-3 small (3-5 cm) true leaves, were used as test substrate. The seedlings were infested with 20-50 GPA (wingless adult and nymph stages) one day prior to chemical application. Four pots with individual seedlings were used for each treatment. Test compounds (2 mg) were dissolved in 2 mL of acetone/methanol (1:1) solvent, forming stock solutions of 1000 ppm test compound. The stock solutions were diluted 5× with 0.025% Tween 20 in H2O to obtain the solution at 200 ppm test compound. A hand-held aspirator-type sprayer was used for spraying a solution to both sides of […] leaves until runoff. Reference plants (solvent check) were sprayed with the diluent only containing 20% by volume of acetone/methanol (1:1) solvent. Treated plants were held in a holding room for three days at approximately 25° C. and ambient relative humidity (RH) prior to grading. Evaluation was conducted by counting the number of live aphids per plant under a microscope. Percent Control was measured by using Abbott's correction formula (W. S. Abbott, “A Method of Computing the Effectiveness of an Insecticide” J. Econ. Entomol. 18 (1925), pp. 265-267) as follows. Corrected % Control=100*(X−Y)/X • where • X=No. of live aphids on solvent check plants and • Y=No. of live aphids on treated plants

[2] = system: Corn Earworm (CEW) (Helicoverpa zea); test: Bioassay on corn earworm (CEW), 128-well diet tray assay; details: 168 h, read-out: % Mortality CEW 50 μg/cm^2
Procedure: (§1) Certain molecules disclosed in this document were tested against BAW and CEW using procedures described in the following examples. In the reporting of the results, the “BAW & CEW Rating Table” was used (See Table Section).
Bioassays on CEW (Helicoverpa zea)
Bioassays on CEW were conducted using a 128-well diet tray assay. One to five second instar CEW larvae were placed in each well (3 mL) of the diet tray that had been previously filled with 1 mL of artificial diet to which 50 μg/cm^2 of the test compound (dissolved in 50 μL of 90:10 acetone-water mixture) had been applied (to each of eight wells) and then allowed to dry. Trays were covered with a clear self-adhesive cover, and held at 25° C., 14:10 light-dark for five to seven days. Percent mortality was recorded for the larvae in each well; activity in the eight wells was then averaged. The results are indicated in the table entitled “Table: Bio Results” (See Table Section).

[3] = system: Beet Armyworm (BAW) (Spodoptera exigua); test: Bioassay on beet armyworm (BAW), 128-well diet tray assay; details: 168 h, read-out: % Mortality BAW 50 μg/cm^2
Procedure: as §1
Bioassays on BAW (Spodoptera exigua)
Bioassays on BAW were conducted using a 128-well diet tray assay. One to five second instar BAW larvae were placed in each well (3 mL) of the diet tray that had been previously filled with 1 mL of artificial diet to which 50 μg/cm^2 of the test compound (dissolved in 50 μL of 90:10 acetone-water mixture) had been applied (to each of eight wells) and then allowed to dry. Trays were covered with a clear self-adhesive cover, and held at 25° C., 14:10 light-dark for five to seven days. Percent mortality was recorded for the larvae in each well; activity in the eight wells was then averaged. The results are indicated in the table entitled “Table: Bio Results” (See Table Section).

[4] = 200 ppm foliar spray on cabbage seedlings, graded after three days, Abbott corrected % control
[5] = 50 μg/cm^2 on artificial diet, second instar larvae, 25° C., five to seven days, average of eight wells

| Compound | mortality at 200 ppm [1, 4] [%] | mortality at 50 µg/cm2 [2, 5] [%] | mortality at 50 µg/cm2 [3, 5] [%] | mortality at 200 ppm ([1]; foliar) [%] | mortality at 50 µg/cm2 [2] [%] | mortality at 50 µg/cm2 [3] [%] |
| --- | --- | --- | --- | --- | --- | --- |
| CN(C)c1ccc(NC(=S)NC2CC2c2ccc(-c3ncn(-c4ccc(OC(F)(F)F)cc4)n3)cc2)cc1 (centres unmarked) [Compound 7, 1-(4-Dimethylaminophenyl)-3-(2-{4-[1-(4-trifluoromethoxyphenyl)-1H-[1,2,4]triazol-3-yl]phenyl}cyclopropyl)thiourea] | 0 | 50 to 100 | 50 to 100 |  |  |  |
| CC(C)(C)c1ccccc1OC(=O)NC1CC1c1ccc(-c2ncn(-c3ccc(OC(F)(F)F)cc3)n2)cc1 (centres unmarked) [Compound 24, 2-tert-Butylphenyl 2-(4-(1-(4-(trifluoromethoxy)phenyl)-1H-1,2,4-triazol-3-yl)phenyl)-cyclopropylcarbamate] |  |  |  | 0 to 80 | 0 | 50 to 100 |
| O=C(Nc1c(Cl)cccc1Cl)NC1CC1c1ccc(-c2ncn(-c3ccc(OC(F)(F)F)cc3)n2)cc1 (centres unmarked) [Compound 31, 1-(2,6-Dichlorophenyl)-3-(2-(4-(1-(4-(trifluoromethoxy)phenyl)-1H-1,2,4-triazol-3-yl)phenyl)cyclopropyl)urea] | 0 | 0 | 0 |  |  |  |
| O=C(NC1CC1c1ccc(-c2ncn(-c3ccc(OC(F)(F)F)cc3)n2)cc1)Oc1ccccc1C(F)(F)F (centres unmarked) [Compound 25, 2-(Trifluoromethyl)phenyl 2-(4-(1-(4-(trifluoromethoxy)phenyl)-1H-1,2,4-triazol-3-yl)-phenyl)cyclopropylcarbamate] |  |  |  | 0 to 80 | 0 | 0 |
| CC(C)c1ccccc1OC(=O)NC1CC1c1ccc(-c2ncn(-c3ccc(OC(F)(F)F)cc3)n2)cc1 (centres unmarked) [Compound 29, 2-Isopropylphenyl 2-(4-(1-(4-(trifluoromethoxy)phenyl)-1H-1,2,4-triazol-3-yl)phenyl)-cyclopropylcarbamate] |  |  |  | 0 | 50 to 100 | 50 to 100 |
| Cc1ccc(NC(=S)NC2CC2c2ccc(-c3ncn(-c4ccc(OC(F)(F)F)cc4)n3)cc2)c(C)c1 (centres unmarked) [Compound 11, 1-(2,4-Dimethylphenyl)-3-(2-(4-(1-(4-(trifluoromethoxy)phenyl)-1H-1,2,4-triazol-3-yl)phenyl)cyclopropyl)thiourea] | 0 to 80 | 50 to 100 | 50 to 100 |  |  |  |
| COC(=O)NC1CC1c1ccc(-c2ncn(-c3ccc(OC(F)(F)F)cc3)n2)cc1 (centres unmarked) [Compound 18, Methyl 2-(4-(1-(4-(trifluoromethoxy)phenyl)-1H-1,2,4-triazol-3-yl)phenyl)cyclopropyl-carbamate] |  |  |  | 0 | 0 to 50 | 0 |
| O=C(NC1CC1c1ccc(-c2ncn(-c3ccc(OC(F)(F)F)cc3)n2)cc1)NC1CC1c1ccc(-c2ncn(-c3ccc(OC(F)(F)F)cc3)n2)cc1 (centres unmarked) [Compound 32, 1,3-bis(2-(4-(1-(4-(trifluoromethoxy)phenyl)-1H-1,2,4-triazol-3-yl)phenyl)cyclopropyl)urea] | 0 to 80 | 50 to 100 | 0 |  |  |  |
| COc1ccc(NC(=S)NC2CC2c2ccc(-c3ncn(-c4ccc(OC(F)(F)F)cc4)n3)cc2)c(C)c1 (centres unmarked) [Compound 3, 1-(4-Methoxy-2-methylphenyl)-3-(2-{4-[1-(4-trifluoromethoxyphenyl)-1H-[1,2,4]triazol-3-yl]phenyl}cyclopropyl)thiourea] | 0 to 80 | 50 to 100 | 50 to 100 |  |  |  |
| FC(F)(F)Oc1ccc(-n2cnc(-c3ccc(C4CC4NC(=S)Nc4c(Cl)cccc4Cl)cc3)n2)cc1 (centres unmarked) [Compound 2, 1-(2,6-Dichlorophenyl)-3-(2-{4-[1-(4-trifluoromethoxyphenyl)-1H-[1,2,4]triazol-3-yl]phenyl}cyclopropyl)thiourea] | 0 to 80 | 50 to 100 | 50 to 100 |  |  |  |
| CC(OC(=O)NC1CC1c1ccc(-c2ncn(-c3ccc(OC(F)(F)F)cc3)n2)cc1)c1ccccc1 (centres unmarked) [Compound 19, 1-Phenylethyl 2-(4-(1-(4-(trifluoromethoxy)phenyl)-1H-1,2,4-triazol-3-yl)phenyl)-cyclopropylcarbamate] |  |  |  | 0 to 80 | 50 to 100 | 0 |
| COc1ccc(OC(=O)NC2CC2c2ccc(-c3ncn(-c4ccc(OC(F)(F)F)cc4)n3)cc2)cc1 (centres unmarked) [Compound 27, 4-Methoxyphenyl 2-(4-(1-(4-(trifluoromethoxy)phenyl)-1H-1,2,4-triazol-3-yl)phenyl)-cyclopropylcarbamate] |  |  |  | 0 | 50 to 100 | 0 to 50 |
| FC(F)(F)Oc1ccc(-n2cnc(-c3ccc(C4CC4NC(=S)Nc4ccccc4)cc3)n2)cc1 (centres unmarked) [Compound 1, 1-phenyl-3-(2-{4-[1-(4-trifluoromethoxyphenyl)-1H-[1,2,4]triazol-3-yl]phenyl}cyclopropyl)thiourea] | 0 | 50 to 100 | 50 to 100 |  |  |  |
| O=C(NC1CC1c1ccc(-c2ncn(-c3ccc(OC(F)(F)F)cc3)n2)cc1)Oc1ccccc1 (centres unmarked) [Compound 21, Phenyl 2-(4-(1-(4-(trifluoromethoxy)phenyl)-1H-1,2,4-triazol-3-yl)phenyl)cyclopropyl-carbamate] |  |  |  | 0 | 50 to 100 | 50 to 100 |
| Cc1cc(C)c(NC(=S)NC2CC2c2ccc(-c3ncn(-c4ccc(OC(F)(F)F)cc4)n3)cc2)c(C)c1 (centres unmarked) [Compound 9, 1-(2-{4-[1-(4-Trifluoromethoxyphenyl)-1H-[1,2,4]triazol-3-yl]phenyl}-cyclopropyl)-3-(2,4,6-trimethylphenyl)thiourea] | 0 | 50 to 100 | 50 to 100 |  |  |  |
| Cc1cc(C)c(OC(=O)NC2CC2c2ccc(-c3ncn(-c4ccc(OC(F)(F)F)cc4)n3)cc2)c(C)c1 (centres unmarked) [Compound 26, Mesityl 2-(4-(1-(4-(trifluoromethoxy)phenyl)-1H-1,2,4-triazol-3-yl)phenyl)cyclopropyl-carbamate] |  |  |  | 0 | 0 to 50 | 50 to 100 |
| FC(F)(F)Oc1ccc(-n2cnc(-c3ccc(C4CC4NC(=S)Nc4ccc(C(F)(F)F)cc4)cc3)n2)cc1 (centres unmarked) [Compound 8, 1-(2-{4-[1-(4-Trifluoromethoxyphenyl)-1H-[1,2,4]triazol-3-yl]phenyl}-cyclopropyl)-3-(4-trifluoromethylphenyl)thiourea] | 0 to 80 | 50 to 100 | 50 to 100 |  |  |  |
| Cc1cc(C)c(/N=C(/NC2CC2c2ccc(-c3ncn(-c4ccc(OC(F)(F)F)cc4)n3)cc2)SCOC(=O)C(C)C)c(C)c1 (centres unmarked) [Compound 16, (Z)-(N′-Mesityl-N-(2-(4-(1-(4-(trifluoromethoxy)phenyl)-1H-1,2,4-triazol-3-yl)phenyl)cyclopropyl)carbamimidoylthio)methyl isobutyrate] | 0 |  |  |  |  |  |
| Cc1cccc(C)c1/N=C(/NC1CC1c1ccc(-c2ncn(-c3ccc(OC(F)(F)F)cc3)n2)cc1)SCOC(=O)C(C)C (centres unmarked) [Compound 15, (Z)-(N′-(2,6-dimethylphenyl)-N-(2-(4-(1-(4-(trifluoromethoxy)phenyl)-1H-1,2,4-triazol-3-yl)phenyl)cyclopropyl)-carbamimidoylthio)methyl isobutyrate] | 0 to 80 |  |  |  |  |  |
